Test results from patent US7731985B2, “4-aminopyrimidines and their use for the antimicrobial treatment of surfaces” (Ciba Specialty Chemicals Corporation, priority 2002, dated 2010).

How the values were obtained:
Test in all cases: MIC in microtitre plates (Example 10)
Format in all cases: cell-based
Design in all cases: unit not given here
Conditions in all cases: microtitre plate, 48 hours at 37° C., ≦20% growth
[1] = system: Pseudomonas aeruginosa CIP A-22 (=PA)
In short: (§1)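 DMSO-dissolved compounds tested in 1:2 serial dilution against overnight CASO broth cultures, inoculum adjusted to 1-5×10^6 CFU/ml then diluted 1:100 in CASO. Incubated 48 hours at 37° C; turbidity read at 620 nm. MIC = lowest concentration giving ≦20% growth versus control; duplicates.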

[2] = system: Escherichia coli NCTC 8196 (=EC)
In short: as §1

[3] = system: Staphylococcus aureus ATCC 9144 (=SA)
In short: as §1

[4] = system: Candida albicans ATCC 10231 (=CA)
In short: as §1

Row | SMILES | MIC PA [1] | MIC EC [2] | MIC SA [3] | MIC CA [4]
1 | CCCCN(C)c1cc(C)nc(C)n1 [compound 126] | >120 | >120 | 120 | 120
2 | CCCCN(C)c1cc(C)nc(C2CC2)n1 [compound 127] | >120 | >120 | 60 | 60
3 | CCCCN(C)c1cc(C)nc(C(C)C)n1 [compound 128] | >120 | >120 | 120 | 120
4 | CCCCN(C)c1cc(C)nc(-c2csc(C)n2)n1 [compound 129] | >120 | >120 | 120 | 120
5 | CCCCN(C)c1cc(C)nc(-c2ccc(C)c(F)c2)n1 [compound 130] | >120 | >120 | 120 | >120
6 | CCCCC(CC)CNc1cc(C)nc(-c2ccc(C(C)(C)C)cc2)n1 (stereo not shown) [compound 131] | >120 | >120 | 120 | >120
7 | CCCCC(CC)CNc1cc(C)nc(-c2cccs2)n1 (stereo not shown) [compound 132] | >120 | >120 | 60 | >120
8 | CCCCC(CC)CNc1cc(C)nc(-c2ccccc2)n1 (stereo not shown) [compound 133] | >120 | >120 | 15 | >120
9 | CCCCC(CC)CNc1cc(C)nc(-c2ccncc2)n1 (stereo not shown) [compound 134] | >120 | >120 | 7.5 | 120
10 | CCCCC(CC)CNc1cc(C)nc(C)n1 (stereo not shown) [compound 135] | >120 | 120 | 60 | 30
11 | CCCCC(CC)CNc1cc(C)nc(-c2ccc(C)cc2)n1 (stereo not shown) [compound 136] | >120 | >120 | 7.5 | 60
12 | CCCCC(CC)CNc1cc(C)nc(C2CC2)n1 (stereo not shown) [compound 137] | >120 | 30 | 15 | 15
13 | CCCCC(CC)CNc1cc(C)nc(C(C)C)n1 (stereo not shown) [compound 138] | >120 | 60 | 30 | 30
14 | CCCCC(CC)CNc1cc(C)nc(-c2csc(C)n2)n1 (stereo not shown) [compound 139] | >120 | 60 | 7.5 | 30
15 | CCCCC(CC)CNc1cc(C)nc(-c2ccc(C)c(F)c2)n1 (stereo not shown) [compound 140] | >120 | >120 | 15 | 120
16 | Cc1cc(NC(C)CC(C)C)nc(-c2ccccc2)n1 (stereo not shown) [compound 141] | >120 | >120 | 120 | >120
17 | Cc1cc(NC(C)CC(C)C)nc(-c2ccncc2)n1 (stereo not shown) [compound 142] | >120 | >120 | 30 | 120
18 | Cc1cc(NC(C)CC(C)C)nc(C)n1 (stereo not shown) [compound 143] | >120 | >120 | >120 | 120
19 | Cc1ccc(-c2nc(C)cc(NC(C)CC(C)C)n2)cc1 (stereo not shown) [compound 144] | >120 | >120 | 60 | 120
20 | Cc1cc(NC(C)CC(C)C)nc(C2CC2)n1 (stereo not shown) [compound 145] | >120 | >120 | >120 | 120
21 | Cc1cc(NC(C)CC(C)C)nc(C(C)C)n1 (stereo not shown) [compound 146] | >120 | >120 | >120 | 120
22 | Cc1cc(NC(C)CC(C)C)nc(-c2csc(C)n2)n1 (stereo not shown) [compound 147] | >120 | >120 | 60 | 120
